Tests used:
UGT 1A10 = target: T1, UGT 1A10 (Homo sapiens, UniProt Q9HAW8); test: Recombinant UGT panel, substrate utilization; assay type: biochemical; conditions: 2 hour incubation at 37° C., recombinant Supersomes, background corrected
T1 construct: purchased BD Gentest; host or cells: insect cells (microsomes)
Protocol: (§1) During this incubation, the cysteine reacts with the cyanobenzathiozole substrate to yield a D-luciferin derivative. […] Therefore, activity of the UGT enzyme can be measured by analyzing the difference (lower or no output) in relative light units (RLU) of a sample in which glucuronidation occurs compared to a sample that was run under the same conditions with no added UDPGA cofactor.
(§2) In this example, a series of 12 recombinant UGTs expressed in insect microsomes (Supersomes™, BD Gentest™), as well as the control microsomes not expressing the UGT enzyme, were incubated with compound 3138, compound 3478, or compound 3165 as substrates, with or without the UDPGA co-factor.
(§3) After addition of a luciferin detection reagent (LDR) containing D-cysteine, both the substrate and the product were converted to D-luciferins (compound 3478 is already a luciferin derivative before addition of the LDR).
(§4) Reactions were assembled in a white, 96-well plate. Each well contained 20 μL of reaction mixture comprised of 100 mM TES, pH 7.5, 16 mM MgCl2, 50 μg/mL alamethicin (Sigma), 60 μM compound 3138 or compound 3478, and 0.4 mg/mL of control or recombinant UGT membranes. The reactions were initiated by addition of 20 μL of water or 8 mM triammonium UDPGA (Sigma) to each well. The plate was mixed, sealed, and incubated in a 37° C. water bath for 2 hours. After the incubation, 40 μL P450-Glo LDR (Promega) with 20 mM D-cysteine-HCl.H2O (Sigma) was added to each well, the plate was mixed and allowed to incubate at room temperature for 20 minutes. After the incubation was completed, the plate was read on a Veritas™ luminometer (Turner BioSystems, Inc.; Sunnyvale, Calif.).
(§5) For each isozyme, the bioluminescence from the replicates containing UDPGA were subtracted from the average bioluminescence of the replicates without UDPGA. The average Δ RLU value obtained and the standard deviation of the replicates were then divided by the average bioluminescence for samples without UDPGA to obtain the % utilization for each isozyme. The % utilization obtained from the control microsomes was then subtracted from each isozyme to give the background corrected utilization data for those isozymes.

UGT 1A8 = target: T2, UGT 1A8 (Homo sapiens, UniProt Q9HAW9); test: Recombinant UGT panel, substrate utilization; assay type: biochemical; conditions: 2 hour incubation at 37° C., recombinant Supersomes, background corrected
T2 construct: purchased BD Gentest; host or cells: insect cells (microsomes)
T2 sequence (Q9HAW9 26-530): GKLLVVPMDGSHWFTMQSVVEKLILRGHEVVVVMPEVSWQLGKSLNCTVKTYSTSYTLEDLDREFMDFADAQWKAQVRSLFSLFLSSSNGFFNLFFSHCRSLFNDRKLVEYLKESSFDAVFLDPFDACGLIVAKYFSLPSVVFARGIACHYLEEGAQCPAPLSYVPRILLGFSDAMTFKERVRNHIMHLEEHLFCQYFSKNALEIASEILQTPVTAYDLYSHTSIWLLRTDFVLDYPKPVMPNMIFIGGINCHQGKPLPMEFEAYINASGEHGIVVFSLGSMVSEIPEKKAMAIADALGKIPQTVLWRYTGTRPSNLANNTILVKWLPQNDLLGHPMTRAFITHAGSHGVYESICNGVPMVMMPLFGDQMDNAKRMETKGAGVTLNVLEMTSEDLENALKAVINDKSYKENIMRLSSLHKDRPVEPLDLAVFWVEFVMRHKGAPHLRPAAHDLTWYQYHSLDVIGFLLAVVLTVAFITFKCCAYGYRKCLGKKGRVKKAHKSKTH
Protocol: as §1, §2, §3, §4, §5

UGT 2B4 = target: T3, UGT 2B4 (Homo sapiens, UniProt P06133); test: Recombinant UGT panel, substrate utilization; assay type: biochemical; conditions: 2 hour incubation at 37° C., recombinant Supersomes
T3 construct: purchased BD Gentest; host or cells: insect cells (microsomes)
T3 sequence (P06133 24-528): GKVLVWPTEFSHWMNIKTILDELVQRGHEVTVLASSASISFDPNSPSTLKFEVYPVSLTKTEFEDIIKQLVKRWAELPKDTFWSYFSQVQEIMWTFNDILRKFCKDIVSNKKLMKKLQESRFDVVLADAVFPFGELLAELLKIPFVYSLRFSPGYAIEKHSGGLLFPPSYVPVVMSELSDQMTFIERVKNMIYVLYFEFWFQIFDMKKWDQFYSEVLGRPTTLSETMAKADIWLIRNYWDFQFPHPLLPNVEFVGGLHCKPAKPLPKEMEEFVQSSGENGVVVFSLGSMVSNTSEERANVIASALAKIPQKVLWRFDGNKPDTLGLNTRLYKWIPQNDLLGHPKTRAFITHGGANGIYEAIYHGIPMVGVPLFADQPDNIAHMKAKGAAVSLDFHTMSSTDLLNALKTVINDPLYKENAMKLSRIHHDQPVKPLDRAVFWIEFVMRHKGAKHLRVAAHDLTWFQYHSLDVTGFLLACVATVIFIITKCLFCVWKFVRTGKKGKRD
Protocol: as §1, §2, §3, §4, §5

UGT 1A4 = target: T4, UGT 1A4 (Homo sapiens, UniProt P22310); test: Recombinant UGT panel, substrate utilization; assay type: biochemical; conditions: 2 hour incubation at 37° C., recombinant Supersomes
T4 construct: purchased BD Gentest; host or cells: insect cells (microsomes)
T4 sequence (P22310 29-534): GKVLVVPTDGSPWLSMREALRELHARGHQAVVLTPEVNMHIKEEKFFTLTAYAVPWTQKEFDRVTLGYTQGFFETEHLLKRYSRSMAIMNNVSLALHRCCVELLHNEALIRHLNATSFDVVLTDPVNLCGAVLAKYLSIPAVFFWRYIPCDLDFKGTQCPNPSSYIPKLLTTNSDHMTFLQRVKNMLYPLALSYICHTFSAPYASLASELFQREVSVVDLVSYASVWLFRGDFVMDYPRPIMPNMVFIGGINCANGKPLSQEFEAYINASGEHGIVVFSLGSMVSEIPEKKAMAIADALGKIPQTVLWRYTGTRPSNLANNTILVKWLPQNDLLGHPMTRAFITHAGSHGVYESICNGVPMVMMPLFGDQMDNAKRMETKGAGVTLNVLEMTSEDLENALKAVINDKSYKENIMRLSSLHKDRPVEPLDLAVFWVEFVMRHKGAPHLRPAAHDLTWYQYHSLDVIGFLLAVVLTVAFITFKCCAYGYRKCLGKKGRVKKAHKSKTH
Protocol: as §1, §2, §3, §4, §5

UGT 1A6 = target: T5, UGT 1A6 (Homo sapiens, UniProt P19224); test: Recombinant UGT panel, substrate utilization; assay type: biochemical; conditions: 2 hour incubation at 37° C., recombinant Supersomes
T5 construct: purchased BD Gentest; host or cells: insect cells (microsomes)
T5 sequence (P19224 27-532): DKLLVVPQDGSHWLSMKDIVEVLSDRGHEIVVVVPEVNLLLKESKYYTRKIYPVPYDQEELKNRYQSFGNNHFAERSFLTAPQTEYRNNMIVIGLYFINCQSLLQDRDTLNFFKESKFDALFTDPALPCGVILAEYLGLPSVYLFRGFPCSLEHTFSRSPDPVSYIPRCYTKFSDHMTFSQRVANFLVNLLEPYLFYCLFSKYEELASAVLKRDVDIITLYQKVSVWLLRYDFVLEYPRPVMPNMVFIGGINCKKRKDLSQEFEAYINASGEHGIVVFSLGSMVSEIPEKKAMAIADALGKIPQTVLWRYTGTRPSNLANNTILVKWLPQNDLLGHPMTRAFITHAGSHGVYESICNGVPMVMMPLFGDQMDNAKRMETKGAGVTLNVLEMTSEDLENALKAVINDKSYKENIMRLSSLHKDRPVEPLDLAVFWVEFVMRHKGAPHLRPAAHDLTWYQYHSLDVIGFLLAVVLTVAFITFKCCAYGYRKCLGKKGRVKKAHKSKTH
Protocol: as §1, §2, §3, §4, §5

UGT 1A9 = target: T6, UGT 1A9 (Homo sapiens, UniProt O60656); test: Recombinant UGT panel, substrate utilization; assay type: biochemical; conditions: 2 hour incubation at 37° C., recombinant Supersomes, background corrected
T6 construct: purchased BD Gentest; host or cells: insect cells (microsomes)
T6 sequence (O60656 26-530): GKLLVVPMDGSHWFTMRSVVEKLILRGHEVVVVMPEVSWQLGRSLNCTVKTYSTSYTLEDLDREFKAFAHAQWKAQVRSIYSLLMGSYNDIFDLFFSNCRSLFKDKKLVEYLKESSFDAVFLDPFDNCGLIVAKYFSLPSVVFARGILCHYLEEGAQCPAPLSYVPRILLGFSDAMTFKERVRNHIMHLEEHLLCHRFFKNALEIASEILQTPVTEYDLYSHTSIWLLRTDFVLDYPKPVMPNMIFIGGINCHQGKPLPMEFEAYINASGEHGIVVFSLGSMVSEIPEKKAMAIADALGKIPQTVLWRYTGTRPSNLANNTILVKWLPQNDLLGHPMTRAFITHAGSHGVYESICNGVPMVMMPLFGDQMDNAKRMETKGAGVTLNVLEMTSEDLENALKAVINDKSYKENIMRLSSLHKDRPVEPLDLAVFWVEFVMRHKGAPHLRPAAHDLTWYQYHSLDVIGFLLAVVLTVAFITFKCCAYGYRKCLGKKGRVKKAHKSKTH
Protocol: as §1, §2, §3, §4, §5

UGT 1A1 = target: T7, UGT 1A1 (Homo sapiens, UniProt P22309); test: Recombinant UGT panel, substrate utilization; assay type: biochemical; conditions: 2 hour incubation at 37° C., recombinant Supersomes, background corrected
T7 construct: purchased BD Gentest; host or cells: insect cells (microsomes)
T7 sequence (P22309 26-533): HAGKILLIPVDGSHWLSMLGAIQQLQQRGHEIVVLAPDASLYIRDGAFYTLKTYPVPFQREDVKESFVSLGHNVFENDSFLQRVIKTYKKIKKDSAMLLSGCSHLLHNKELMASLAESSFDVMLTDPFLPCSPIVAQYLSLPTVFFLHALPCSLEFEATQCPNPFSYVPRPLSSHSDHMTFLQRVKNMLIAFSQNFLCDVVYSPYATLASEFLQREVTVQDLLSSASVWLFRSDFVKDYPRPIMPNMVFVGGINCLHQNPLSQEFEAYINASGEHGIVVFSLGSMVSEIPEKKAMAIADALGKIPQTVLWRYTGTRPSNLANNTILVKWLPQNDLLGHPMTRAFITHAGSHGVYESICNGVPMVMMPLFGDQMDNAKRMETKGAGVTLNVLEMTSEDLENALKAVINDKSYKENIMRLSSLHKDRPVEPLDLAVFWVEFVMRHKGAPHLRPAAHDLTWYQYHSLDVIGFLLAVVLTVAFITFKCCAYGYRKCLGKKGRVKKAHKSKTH
Protocol: as §1, §2, §3, §4, §5

UGT 2B7 = UGT 2B7 (Homo sapiens, UniProt P16662); test: Recombinant UGT panel, substrate utilization; assay type: biochemical; set-up: purchased BD Gentest; host or cells: insect cells (microsomes); conditions: 2 hour incubation at 37° C., recombinant Supersomes, background corrected
Sequence of UGT 2B7 (P16662 24-529): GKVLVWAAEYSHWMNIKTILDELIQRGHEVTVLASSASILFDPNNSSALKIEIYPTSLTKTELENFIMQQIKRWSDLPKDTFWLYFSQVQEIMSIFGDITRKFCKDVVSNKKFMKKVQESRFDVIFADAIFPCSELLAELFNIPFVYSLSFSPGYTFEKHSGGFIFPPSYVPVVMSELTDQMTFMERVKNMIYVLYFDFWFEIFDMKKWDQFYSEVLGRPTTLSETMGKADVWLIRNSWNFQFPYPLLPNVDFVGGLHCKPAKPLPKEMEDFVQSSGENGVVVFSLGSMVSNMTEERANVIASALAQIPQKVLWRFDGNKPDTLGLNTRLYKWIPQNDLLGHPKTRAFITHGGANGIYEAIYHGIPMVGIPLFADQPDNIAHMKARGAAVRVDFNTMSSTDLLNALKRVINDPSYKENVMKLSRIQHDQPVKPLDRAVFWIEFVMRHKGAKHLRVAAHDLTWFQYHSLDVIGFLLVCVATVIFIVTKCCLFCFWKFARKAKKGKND
Protocol: as §1, §2, §3
Reactions were assembled in a white, 96-well plate. Each well contained 20 μL of reaction mixture comprised of 100 mM TES, pH 7.5, 16 mM MgCl2, 50 μg/mL alamethicin (Sigma), 60 μM compound 3138 or compound 3478, and 0.4 mg/mL of control or recombinant UGT membranes. The reactions were initiated by addition of 20 μL of water or 8 mM triammonium UDPGA (Sigma) to each well. […] After the incubation was completed, the plate was read on a Veritas™ luminometer (Turner BioSystems, Inc.; Sunnyvale, Calif.). […]

[1] = target: T8, glutathione S-transferase isoenzyme A1-1 (GST A1-1) (Homo sapiens, UniProt P08263); test: Utilization of benzothiazole substrate by GST A1-1; assay type: biochemical; conditions: 55 minutes at room temperature
T8 sequence (P08263 1-222): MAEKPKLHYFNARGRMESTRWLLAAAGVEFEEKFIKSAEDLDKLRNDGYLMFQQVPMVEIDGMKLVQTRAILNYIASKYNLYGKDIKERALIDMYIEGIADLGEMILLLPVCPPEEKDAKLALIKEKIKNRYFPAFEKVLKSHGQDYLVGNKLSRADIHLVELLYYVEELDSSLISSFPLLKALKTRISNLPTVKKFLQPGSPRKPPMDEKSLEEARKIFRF
Protocol: (§6) Compound 934-37 was dissolved in DMSO to produce a solution approximately 1 mg/mL. This solution was diluted 1:100 (v/v) into 50 mM HEPES buffer pH 7.5 to produce a substrate solution (approximately 10 μg/ml). Twenty μL of this solution was placed in 10 wells of a 96 well, white luminometer plate (Promega part Z3291), 20 μL of a 1:3.1 dilution of the substrate (approximately 3.2 μg/ml) was placed into another 10 wells in the luminometer plate.
(§7) D-Cysteine, 4 mg (Sigma Chemical Corp.; C8005-1g, 017K1034) was dissolved into 1 mL of 50 mM HEPES buffer pH 7.5, then 4 μL added to 4 of the wells containing the substrate solution and 4 of the wells with diluted substrate solution to convert compound 934-37 to the corresponding luciferin derivative. The structures of these compounds are shown below.
A sample of glutathione S-transferase isoenzyme A1-1 (GST A1-1) (1.2 mg/mL) and 100 μL of 100 mM glutathione in water was diluted into 5 mL of 50 mM HEPES pH 7.5, then 25 μL added to the plate as follows: 2 wells with unconverted, concentrated compound 934-37; 2 wells with concentrated and converted compound 934-37; 2 wells with unconverted, diluted compound 934-37; and 2 of the wells with converted, diluted compound 934-37.
(§8) Glutathione (100 μL of 100 mM glutathione) had been diluted to 5 mL with 50 mM HEPES buffer pH 7.5, then 25 μL added to the remaining wells of converted and unconverted compound 934-37 in concentrated and diluted solution.
(§9) After 55 minutes at room temperature, 4 μL of the D-cysteine solution above was added to all wells that had not received cysteine before, then 50 μL of P450-Glo LDR was added. The plate was then placed into a GloMax luminometer (Promega Corp.), and the bioluminescence measured after 15 minutes of incubation. The values obtained were averaged, and the average value of the bioluminescence produced from the wells with no enzyme were then subtracted from the average of the bioluminescence produced in the wells with enzyme.

GST M1-1 = target: T9, GST M1-1 (Homo sapiens, UniProt P09488); test: Utilization of benzothiazole substrate by GST M1-1; assay type: biochemical; conditions: 55 minutes at room temperature
T9 sequence (P09488 2-218 limits assumed): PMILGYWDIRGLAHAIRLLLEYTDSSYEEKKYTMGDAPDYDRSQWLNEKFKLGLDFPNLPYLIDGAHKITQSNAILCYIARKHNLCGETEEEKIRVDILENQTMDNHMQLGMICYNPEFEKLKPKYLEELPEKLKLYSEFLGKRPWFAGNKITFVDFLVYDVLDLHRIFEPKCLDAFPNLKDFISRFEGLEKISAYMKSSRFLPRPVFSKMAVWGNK
Protocol: as §6, §7
A sample of GST M1-1 (1.2 mg/mL) and 100 μL of 100 mM glutathione was diluted into 5 mL of 50 mM HEPES pH 7.5, then 25 μL added to: two of the wells with unconverted, concentrated compound 934-37; 2 wells with concentrated and converted compound 934-37; and two of the wells with unconverted, diluted compound 934-37 and 2 of the wells with converted, diluted compound 934-37.
as §8, §9

UGT isozymes = UGT isozymes currently reported in the literature; cited from earlier work
[2] = tested on: CYP450 1A2 activity in human liver microsomes; test: Human liver microsome assay with compound 3019; conditions: 1 μg HLM, 3 μM compound 3019, 10 minutes at 37° C.
Protocol: Equal volumes of P450-Glo LDR with 6.6 mM D-Cysteine was added into the CYP450 reactions.

[3] = concentrated substrate (approximately 10 μg/ml)
[4] = diluted substrate (approximately 3.2 μg/ml)

T1 sequence (Q9HAW8 26-530): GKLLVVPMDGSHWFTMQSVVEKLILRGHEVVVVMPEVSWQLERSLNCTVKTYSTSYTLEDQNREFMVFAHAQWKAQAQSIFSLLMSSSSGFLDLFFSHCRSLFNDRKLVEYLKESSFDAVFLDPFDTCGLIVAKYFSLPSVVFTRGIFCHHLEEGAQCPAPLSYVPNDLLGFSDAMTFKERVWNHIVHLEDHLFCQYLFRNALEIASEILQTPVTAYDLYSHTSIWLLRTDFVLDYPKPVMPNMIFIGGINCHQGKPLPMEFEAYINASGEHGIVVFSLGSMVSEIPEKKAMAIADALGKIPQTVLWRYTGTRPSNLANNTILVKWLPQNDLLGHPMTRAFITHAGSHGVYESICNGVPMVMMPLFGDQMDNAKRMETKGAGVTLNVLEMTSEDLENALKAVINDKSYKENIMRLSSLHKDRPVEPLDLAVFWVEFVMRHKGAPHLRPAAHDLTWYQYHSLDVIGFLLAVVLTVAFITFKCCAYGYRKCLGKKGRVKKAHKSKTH

Cc1cc(O)cc2sc(C3=NC(C(=O)O)CS3)nc12 (centres unmarked) [Compound 3478]
% utilization of substrate by UGT 1A10 (UGT 1A10): ≤ 15%
% utilization of substrate by UGT 1A8 (UGT 1A8): ≤ 15%
utilization of substrate by UGT 2B4 (UGT 2B4): did not utilize either compound 3138 or 3478 to an appreciable extent
utilization of substrate by UGT 1A4 (UGT 1A4): did not utilize either compound 3138 or 3478 to an appreciable extent
utilization of substrate by UGT 1A6 (UGT 1A6): able to utilize compound 3478 to any appreciable extent
% utilization of substrate by UGT 1A9 (UGT 1A9): ≤ 15%
% utilization of substrate by UGT 1A1 (UGT 1A1): ≤ 15%
% utilization of substrate by UGT 2B7 (UGT 2B7): ≤ 15%

Cc1cc(S(=O)(=O)Oc2ccc3nc(C4=N[C@@H](C(=O)O)CS4)sc3c2)ccc1[N+](=O)[O-] [converted compound 934-37]
bioluminescence with GST A1-1 minus no enzyme [1, 3]: 6,410 RLU
bioluminescence with GST A1-1 minus no enzyme [1, 4]: 6,462 RLU
bioluminescence with GST M1-1 minus no enzyme (GST M1-1; [3]): 315,759 RLU
bioluminescence with GST M1-1 minus no enzyme (GST M1-1; [4]): 213,920 RLU

O=c1cc(C(F)(F)F)c2ccc(O)cc2o1 [7-hydroxy-4-trifluoromethyl coumarin]
Isozymes Modulated (UGT isozymes): Substrate for 1A1, 1A3, 1A6, 1A9, 2B7

O=c1ccc2ccc(O)cc2o1 [Umbelliferne]
Isozymes Modulated (UGT isozymes): Substrate of most isozymes

C=C[C@H]1C[N@@]2CC[C@H]1C[C@@H]2[C@@H](O)c1ccnc2ccc(OC)cc12 [Quinidine]
Isozymes Modulated (UGT isozymes): 2B7 and 2B15, others to a lesser extent

O=c1cc(-c2ccccc2)oc2c1ccc1ccccc12 [α-naphthoflavone, reference compound]
inhibition of compound 3019 activity in human liver microsomes [2]: sensitive to inhibition

Cc1cc(S(=O)(=O)Oc2ccc3nc(C#N)sc3c2)ccc1[N+](=O)[O-] [Compound 934-37]
bioluminescence with GST A1-1 minus no enzyme [1, 3]: 164,400 RLU
bioluminescence with GST A1-1 minus no enzyme [1, 4]: 195,021 RLU
bioluminescence with GST M1-1 minus no enzyme (GST M1-1; [3]): 41,212 RLU
bioluminescence with GST M1-1 minus no enzyme (GST M1-1; [4]): 30,428 RLU

From patent US8592172B2, “Bioluminescent assays using cyanobenzothiazole compounds” (Promega Corporation, priority 2010, dated 2013)
